In patent US9302999B2, “Substituted triazoles as herbicides” (E. I. DU PONT DE NEMOURS AND COMPANY, priority 2012, dated 2016):

Columns and labels:
Type in all cases: in vivo
[1] = test system: wheat, spring (spring wheat, Triticum aestivum); test: Test D pre-/postemergence: wheat, spring
Source text: (§1) Seeds of plant species selected from bluegrass (annual bluegrass, Poa annua), blackgrass (Alopecurus myosuroides), canarygrass (Phalaris minor), chickweed (common chickweed, Stellaria media), galium (catchweed bedstraw, Galium aparine), bromegrass, downy (downy bromegrass, Bromus tectorum), field poppy (Papaver rhoeas), field violet (Viola arvensis), foxtail, green (green foxtail, Setaria viridis), deadnettle (henbit deadnettle, Lamium amplexicaule), ryegrass, Italian (Italian ryegrass, Lolium multiflorum), kochia (Kochia scoparia), lambsquarters (Chenopodium album), oilseed rape (Brassica napus), pigweed (Amaranthus retroflexus), Russian thistle (Salsola iberica), chamomile (scentless chamomile, Matricaria inodora), speedwell (bird's-eye speedwell, Veronica persica), barley, spring (spring barley, Hordeum vulgare), wheat, spring (spring wheat, Triticum aestivum), buckwheat, wild (wild buckwheat, Polygonum convolvulus), mustard, wild (wild mustard, Sinapis arvensis), oat, wild (wild oat, Avena fatua), radish, wild (wild radish, Raphanus raphanistrum), windgrass (Apera spica-venti), barley, winter (winter barley, Hordeum vulgare), and wheat, winter (winter wheat, Triticum aestivum) were planted into a silt loam soil and treated preemergence with test chemicals formulated in a non-phytotoxic solvent mixture which included a surfactant. At the same time, these same crop and weed species were planted in pots containing the planting medium comprising spaghnum peat moss, vermiculite, wetting agent and starter nutrients and treated with postemergence applications of the test chemicals formulated in the same manner. Plants ranged in height from 2 to 18 cm (1- to 4-leaf stage).
(§2) Treated plants and controls were maintained in a controlled growth environment for 14 to 21 days after which time all species were compared to controls and visually evaluated. Plant response ratings, summarized in Table D, are based on a scale of 0 to 100 where 0 is no effect and 100 is complete control. A dash (-) response means no test result.

[2] = test system: oilseed rape (Brassica napus); test: Test D pre-/postemergence: oilseed rape
Method in brief: (§3)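 Species were sown in silt loam and sprayed preemergence, or grown in peat/vermiculite medium and sprayed postemergence at the 1- to 4-leaf stage (2–18 cm), with compounds in a surfactant-containing solvent. Injury was visually rated against untreated controls after 14–21 days, on a 0 (no effect) to 100 (complete control) scale.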

[3] = test system: field violet (Viola arvensis); test: Test D pre-/postemergence: field violet
Source text: as §1, §2

[4] = test system: barley, winter (winter barley, Hordeum vulgare); test: Test D pre-/postemergence: barley, winter
Method in brief: as §3

[5] = test system: chamomile (scentless chamomile, Matricaria inodora); test: Test D pre-/postemergence: chamomile
Method in brief: as §3

[6] = Postemergence, 31 g ai/ha, scale 0 to 100 (0 no effect, 100 complete control)
[7] = Postemergence, 62 g ai/ha, scale 0 to 100 (0 no effect, 100 complete control)
[8] = Postemergence, 125 g ai/ha, scale 0 to 100, 0 no effect, 100 complete control
[9] = Postemergence, 250 g ai/ha, scale 0 to 100 (0 no effect, 100 complete control)
[10] = Postemergence, 16 g ai/ha, scale 0 to 100
[11] = Preemergence, 16 g ai/ha, scale 0 to 100, 0 no effect, 100 complete control
[12] = Preemergence, 31 g ai/ha, scale 0 to 100, 0 no effect, 100 complete control
[13] = Preemergence, 62 g ai/ha, scale 0 to 100
[14] = Preemergence, 125 g ai/ha, scale 0 to 100
[15] = Preemergence, 250 g ai/ha, scale 0 to 100

Structure (SMILES): Cc1nn(-c2ccc(C(F)(F)F)cc2)nc1Oc1ccnc(C(F)(F)F)c1 [Compound 120]
- Plant response rating: Wheat, Spring [1, 6]: 10
- Plant response rating: Wheat, Spring [1, 7]: 10
- Plant response rating: Wheat, Spring [1, 8]: 20
- Plant response rating: Wheat, Spring [1, 9]: 25
- Plant response rating, Wheat, Spring [1, 10]: 10
- Plant response rating, Wheat, Spring [1, 11]: 0
- Plant response rating, Wheat, Spring [1, 12]: 0
- Plant response rating, Wheat, Spring [1, 13]: 5
- Plant response rating, Wheat, Spring [1, 14]: 10
- Plant response rating, Wheat, Spring [1, 15]: 20
- Plant response rating: Oilseed Rape [2, 6]: 50
- Plant response rating: Oilseed Rape [2, 7]: 80
- Plant response rating: Oilseed Rape [2, 8]: 90
- Plant response rating: Oilseed Rape [2, 9]: 98
- Plant response rating, Oilseed Rape [2, 10]: 20
- Plant response rating, Oilseed Rape [2, 11]: 0
- Plant response rating, Oilseed Rape [2, 12]: 10
- Plant response rating, Oilseed Rape [2, 13]: 10
- Plant response rating, Oilseed Rape [2, 14]: 30
- Plant response rating, Oilseed Rape [2, 15]: 70
- Plant response rating: Field Violet [3, 6]: 70
- Plant response rating: Field Violet [3, 7]: 100
- Plant response rating: Field Violet [3, 8]: 100
- Plant response rating: Field Violet [3, 9]: 100
- Plant response rating, Field Violet [3, 10]: 70
- Plant response rating, Field Violet [3, 11]: 75
- Plant response rating, Field Violet [3, 12]: 90
- Plant response rating, Field Violet [3, 13]: 95
- Plant response rating, Field Violet [3, 14]: 100
- Plant response rating, Field Violet [3, 15]: 100
- Plant response rating: Barley, Winter [4, 6]: 15
- Plant response rating: Barley, Winter [4, 7]: 20
- Plant response rating: Barley, Winter [4, 8]: 20
- Plant response rating: Barley, Winter [4, 9]: 40
- Plant response rating, Barley, Winter [4, 10]: 10
- Plant response rating, Barley, Winter [4, 11]: 0
- Plant response rating, Barley, Winter [4, 12]: 0
- Plant response rating, Barley, Winter [4, 13]: 10
- Plant response rating, Barley, Winter [4, 14]: 15
- Plant response rating, Barley, Winter [4, 15]: 40
- Plant response rating: Chamomile [5, 6]: 25
- Plant response rating: Chamomile [5, 7]: 40
- Plant response rating: Chamomile [5, 8]: 80
- Plant response rating: Chamomile [5, 9]: 90
- Plant response rating, Chamomile [5, 10]: 10
- Plant response rating, Chamomile [5, 11]: 0
- Plant response rating, Chamomile [5, 12]: 10
- Plant response rating, Chamomile [5, 13]: 20
- Plant response rating, Chamomile [5, 14]: 100
- Plant response rating, Chamomile [5, 15]: 100

Structure (SMILES): COc1nn(-c2ccc(C(F)(F)F)cc2)nc1Cc1ccnc(C(F)F)c1 [Compound 138]
- Plant response rating: Wheat, Spring [1, 6]: 5
- Plant response rating: Wheat, Spring [1, 7]: 10
- Plant response rating: Wheat, Spring [1, 8]: 25
- Plant response rating: Wheat, Spring [1, 9]: 35
- Plant response rating, Wheat, Spring [1, 10]: 5
- Plant response rating: Oilseed Rape [2, 6]: 95
- Plant response rating: Oilseed Rape [2, 7]: 100
- Plant response rating: Oilseed Rape [2, 8]: 100
- Plant response rating: Oilseed Rape [2, 9]: 100
- Plant response rating, Oilseed Rape [2, 10]: 85
- Plant response rating: Field Violet [3, 6]: 70
- Plant response rating: Field Violet [3, 7]: 75
- Plant response rating: Field Violet [3, 8]: 85
- Plant response rating: Field Violet [3, 9]: 90
- Plant response rating, Field Violet [3, 10]: 60
- Plant response rating: Barley, Winter [4, 6]: 5
- Plant response rating: Barley, Winter [4, 7]: 15
- Plant response rating: Barley, Winter [4, 8]: 20
- Plant response rating: Barley, Winter [4, 9]: 20
- Plant response rating, Barley, Winter [4, 10]: 5
- Plant response rating: Chamomile [5, 6]: 10
- Plant response rating: Chamomile [5, 7]: 30
- Plant response rating: Chamomile [5, 8]: 60
- Plant response rating: Chamomile [5, 9]: 80
- Plant response rating, Chamomile [5, 10]: 0
